Source: US6525077B2, “Cyanoguanidine prodrugs” (Leo Pharmaceutical Products Ltd. A/S, priority 2000, dated 2003)
≈ marks a conversion by molar mass, not a printed value.

Tests used:
[1] = system: normal human endothelial cells; settings: cited from earlier work
[2] = system: human lung cancer tumour xenograft; settings: cited from earlier work
[3] = system: human tumour cells; settings: nude mice transplanted with human tumour cells, also paclitaxel-resistant tumour cells; cited from earlier work
[4] = Solubility in water; format: physicochemical
Method: The solubility in water of compounds of the present invention was determined by shaking the compounds in water for one hour at room temperature followed by filtration and determination of the concentration of the compound in the filtrate by HPLC. […]

[5] = system: human lung and breast cancer cell lines; settings: cited from earlier work

| Compound | antiproliferative activity on normal human endothelial cells [1] | antitumour activity in the nude mouse model [2] | antitumour activity in vivo [3] | solubility at 1 h ([4]; thermodynamic from solid, shaken in water for one hour at room temperature, filtration, filtrate by HPLC) [mg/mL] | solubility (in words) ([4]; water) | antiproliferative activity in vitro [5] | Solubility in water [4] [mg/mL] |
| --- | --- | --- | --- | --- | --- | --- | --- |
| N#CNC(=Nc1ccncc1)NCCCCCCOc1ccc(Cl)cc1 [N-(6-(4-chlorophenoxy)-hexyl)-N′-cyano-N″-(4-pyridyl)-guanidine] | considerably less antiproliferative activity | potent antitumour activity | substantial antitumour activity | 0.0002 (≈ 0.538 µM) | for all practical purposes insoluble | high antiproliferative activity |  |
| COCCOCCOCCOCCOC(=O)OC[n+]1ccc(NC(=NC#N)NCCCCCCOc2ccc(Cl)cc2)cc1.[Cl-] [Example 9, 1-[2-(2-(2-(2-Methoxyethoxy)-ethoxy)-ethoxy)-ethoxy-carbonyloxymethyl]-4-[N′-cyano-N″-(6-(4-chlorophenoxy)-hexyl)-N-guanidino]-pyridinium chloride] |  |  |  |  |  |  | >50 |
| COCCOCCOCCOCC(=O)OC[n+]1ccc(NC(=NC#N)NCCCCCCOc2ccc(Cl)cc2)cc1.[Cl-] [Example 8, 1-[2-(2-(2-Methoxyethoxy)-ethoxy)-ethoxy-acetoxymethyl]-4-[N′-cyano-N″-(6-(4-chlorophenoxy)-hexyl)-N-guanidino]-pyridinium chloride] |  |  |  |  |  |  | >50 |
